Data reported in patent US5461044A, “Cephalosporin derivatives” (Meiji Seika Kaisha, Ltd., priority 1991, dated 1995).
Values after ≈ are worked out from the molar mass of the structure shown. Like-named read-outs stand apart in the source and are kept apart here.

Key:
[1] = tested on: Escherichia coli NIHJ JC-2; assay: Minimum growth inhibition concentration, standard serial dilution method; format: cell-based
Method: (§1) In this Test Example, the antibacterial activity of some exemplary compounds indicated below and chosen from amongst the compounds of the general formula (I) according to this invention is illustrated by determining their minimum growth inhibition concentrations to various bacteria as measured by a standard serial dilution method. In this case, the determination was carried out by inoculating 10^6 CFU/ml of test bacteria to a culture medium N for sensitive disc (as prepared by Nissui Pharmaceutical Co., Ltd.), incubating the bacteria at 35° C. for 18 to 20 hours, and then evaluating the bacterial growth. Test compounds used are as follows:
(§2) The measured values of the minimum growth inhibition concentrations ([…]) of the above-mentioned compounds A, B and C are shown in Table 1.

[2] = tested on: Klebsiella pneumoniae PCI602; assay: as above; format: cell-based
Method: as §1, §2

[3] = tested on: Marganella morganii 1510/S-1; assay: as above; format: cell-based; settings: read-out: Minimum growth inhibition concentration
Method: as §1, §2

Proteus vulgaris GN76 = assay: as above; format: cell-based
Method: as §1, §2

[4] = tested on: Staphylococcus aureus 209P JC-1; assay: as above; format: cell-based; settings: read-out: Minimum growth inhibition concentration
Method: as §1, §2

[5] = tested on: Staphylococcus epidermidis ATCC14990; assay: as above; format: cell-based; settings: 10^6 CFU/ml, 35° C., 18 to 20 hours
Method: as §1, §2

[6] = tested on: Staphylococcus aureus M126; assay: as above; format: cell-based; settings: Staphylococcus aureus M126 (methicillin-resistant); 10^6 CFU/ml, 35° C., 18 to 20 hours
Method: as §1, §2
(§3) Note: (*) means methicillinresistant Staphylococus aureus.

[7] = tested on: Staphylococcus aureus M133; assay: as above; format: cell-based; settings: Staphylococcus aureus M133 (methicillin-resistant); 10^6 CFU/ml, 35° C., 18 to 20 hours
Method: as §1, §2, §3

[8] = Concentration in blood upon subcutaneous injection in mice (HPLC, serum); format: in vivo, mice of ICR strain; settings: sc, male ICR mice, 0.5 mg per mouse; for half-life / AUC: Gauss-Newton method; for AUC: read-out: AUC (Area under the plasma concentration-time curve); for Cmax: HPLC, read-out: Maximum concentration in blood
Method: Test compounds used are as follows:
The test procedure used was as follows. That is, 5 mice of ICR strain (male, 4-weeks-aged, 1 mouse in each group/at the time of collection of blood samples) were used as test animal and 0.5 mg of each test compound dissolved in 0.2 ml of a purified water sterilized for injection was subcutaneously injected to each mouse. Blood samples were collected from each mouse 5 minutes, 15 minutes, 30 minutes, 1 hour and 2 hours after the aministration of test compound. Each blood sample as collected was post-treated in a usual manner and the concentration of the cephem compound in the serum was then quantitatively determined by the use of HPLC (High Performance Liquid Chromatography). A half-life value and AUC which were pharmacokinetic parameters were calculated by the Gauss-Newton method.
AUC means "Area under the plasma concentration-time curve".

[9] = Toxicity (LD50) on intravenous administration in mice; settings: mouse, in vivo
Method: The cephalosporin derivative of the general formula (I) according to this invention can safely be administered to mammals because it is of low toxicity. […] The new cephalosporin derivative of this invention may be administered orally at a unit dose of 100 mg to 250 mg to an adult human patient four times a day, for a guideline. However, precise dosage of the new cephalosporin derivative of this invention is determinable through preliminary routine experiments, depending on the body weight, ages, sex and other various parameters of patients as well as the nature of the bacterial infections to be treated, and so on.

[10] = Proteus vulgaris GN76, 10^6 CFU/ml, 35° C., 18 to 20 hours, read-out: Minimum growth inhibition concentration
[11] = Escherichia coli, NIHJJC2, read-out: Minimum growth inhibition concentration
[12] = Klebsiella pneumoniae, PCI602, read-out: Minimum growth inhibition concentration

SMILES | MIC ([1]; NIHJJC2, Escherichia coli NIHJ JC-2, 10^6 CFU/ml, 35° C., 18 to 20 hours, read-out: Minimum growth inhibition concentration) | MIC ([2]; Klebsiella pneumoniae PCI602, 10^6 CFU/ml, 35° C., 18 to 20 hours, read-out: Minimum growth inhibition concentration) | MIC [3] | MIC (Proteus vulgaris GN76; [10]) | MIC [4] | MIC [5] | MIC [6] | MIC [7] | MIC [1, 11] | MIC [2, 12] | MIC (Proteus vulgaris GN76; Proteus vulgaris, GN76, read-out: Minimum growth inhibition concentration) | half-life [8] | AUC [8] | Cmax [8] | LD50 [9]
Nc1nc(/C(=N/O)C(=O)NC2C(=O)N3C(C(=O)O)=C(Sc4nc5ccccc5s4)CS[C@H]23)cs1 (stereo partly shown) [B, 7-[(Z)-2-(2-aminothiazol-4-yl)-2hydroxyiminoacetamido]-3-(benzothiazol-2-yl)thio-3-cephem-4-carboxylic acid] | 25 µg/mL (≈ 46.8 µM) | 25 µg/mL (≈ 46.8 µM) | 3.13 µg/mL (≈ 5.85 µM) | 100 µg/mL (≈ 187 µM) | 0.2 µg/mL (≈ 0.374 µM) | 0.2 µg/mL (≈ 0.374 µM) | 3.13 µg/mL (≈ 5.85 µM) | 1.56 µg/mL (≈ 2.92 µM) |  |  |  |  |  |  | 
CO/N=C(\C(=O)NC1C(=O)N2C(C(=O)O)=C(Sc3nc4ccccc4s3)CS[C@H]12)c1csc(N)n1 (stereo partly shown) [Compound A, 7-[(Z)-2-(2-aminothiazol-4-yl)-2methoxyiminoacetamido]-3-(benzothiazol-2-yl)thio-3-cephem-4-carboxylic acid] |  |  | 0.78 µg/mL (≈ 1.42 µM) |  | 0.39 µg/mL (≈ 0.711 µM) | 0.2 µg/mL (≈ 0.365 µM) | 6.25 µg/mL (≈ 11.4 µM) | 3.13 µg/mL (≈ 5.7 µM) | 3.13 µg/mL (≈ 5.7 µM) | 3.13 µg/mL (≈ 5.7 µM) | 3.13 µg/mL (≈ 5.7 µM) | 42 min | 62500 ng·h/mL | 51.6 µg/mL | 1000 to 1500 mg/kg
Nc1nc(/C(=N/OCC(=O)O)C(=O)NC2C(=O)N3C(C(=O)O)=C(Sc4nc5ccccc5s4)CSC23)cs1 (stereo not shown) [Compound C, 7-[(Z)-2-(2-aminothiazol-4-yl)-2carboxymethoxyiminoacetamido]-3-(benzothiazol-2-yl)thio3-cephem-4-carboxylic acid] |  |  | 0.78 µg/mL (≈ 1.32 µM) | 0.1 µg/mL (≈ 0.169 µM) | 3.13 µg/mL (≈ 5.28 µM) | 1.56 µg/mL (≈ 2.63 µM) | 50 µg/mL (≈ 84.4 µM) | 12.5 µg/mL (≈ 21.1 µM) | 3.13 µg/mL (≈ 5.28 µM) | 3.13 µg/mL (≈ 5.28 µM) |  | 55.2 min | 131000 ng·h/mL | 80.8 µg/mL | 
